Source: patent publication US20120039826A1, “COSMETIC COMPOSITION FOR SKIN LIGHTENING” (priority 2009, published 2012)

Tested on: Keratinocytes (HaCaT cells)
Test: Keratinocyte differentiation assay
Type: cell-based
Conditions: HaCaT cells cultured with active 24 hours, acridine orange, % of control (control = 100)
Experimental: Keratinocyte Differentiation Assay
This is an in vitro cell culture based assay to evaluate the capability of these actives to alter cell differentiation process. Keratinocytes (HaCaT cells—5×10^4 cells/well) were grown in 24 well plates for 24 hours. These proliferating keratinocytes were further cultured with actives for 24 hours. Cells were then washed with PBS and stained with acridine orange in PBS (Sigma Chemical Co, USA). Cells were washed 15 minutes later and viewed using an epi-fluorescent microscope (Olympus BX 50), at 20× magnification, using appropriate excitation and barrier filters, to simultaneously view red and green fluorescence (excitation: 460 nm and emission >515 nm). The entire plate was scanned and the percentage of differentiated keratinocytes (cells with red fluorescence evenly distributed within the cytoplasm) was estimated. Data were represented as % of control. Higher % values indicate increased cell differentiation.

Question: `CC(=O)O.N` [Ammonium acetate] was tested. Which “% Differentiation” value (concentration 0.002%) did it give?
Answer: 175%

Question: How did the “% Differentiation” value (concentration 0.002%) turn out when `CC(=O)[O-].CC(=O)[O-].[Mg+2]` [Magnesium acetate] was run?
Answer: 250%

Question: What about the “% Differentiation” value (concentration 0.01%) of the same molecule?
Answer: 237%

Question: Which “% Differentiation” value (concentration 0.01%) does the source give for `O=C([O-])C(O)C(O)C(=O)[O-].[Na+].[Na+]` (stereo not drawn) [Na tartarate (c4), Na tartarate] here?
Answer: 165%

Question: With `CC(=O)[O-].[Na+]` [Sodium acetate] as the molecule, how does the “% Differentiation” value (concentration 0.002%) read?
Answer: 175%

Question: What about the “% Differentiation” value (concentration 0.01%) of the same molecule?
Answer: 168%
